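Compound exposure: 48 hours, 5 concentrations, 96-well plates. GI50 = concentration required for 50% inhibition of growth.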 Calls of active or inactive are those of the source. Rule as the data show it: active = GI50 up to about 1.1 µM and inactive = higher.
Experiments:
Experiment in all cases: NCI-60 cell line screen, 48 h
SK-MEL-5 = tested on: SK-MEL-5
SW-620 = tested on: SW-620
KM12 = tested on: KM12
SK-MEL-2 = tested on: SK-MEL-2
EKVX = tested on: EKVX
SF-268 = tested on: SF-268
ACHN = tested on: ACHN
RXF 393 = tested on: RXF 393
A549 = tested on: A549
SN12C = tested on: SN12C
LOX IMVI = tested on: LOX IMVI
SF-295 = tested on: SF-295
OVCAR-4 = tested on: OVCAR-4
NCI/ADR-RES = tested on: NCI/ADR-RES
IGROV-1 = tested on: IGROV-1
MOLT-4 = tested on: MOLT-4
CAKI-1 = tested on: CAKI-1
SK-OV-3 = tested on: SK-OV-3
NCI-H522 = tested on: NCI-H522
TK-10 = tested on: TK-10

Measured: GI50

C=CC[N+]12CN3CN(CN(C3)C1)C2
inactive: SK-MEL-5 36.6 µM | SW-620 5.94 µM | KM12 29 µM | SK-MEL-2 42.1 µM | EKVX 20.4 µM | SF-268 24.6 µM | ACHN 21.3 µM | RXF 393 18.5 µM | A549 31.3 µM | SN12C 23.4 µM | LOX IMVI 27 µM | SF-295 > 100 µM | OVCAR-4 26.2 µM | NCI/ADR-RES 26.1 µM | IGROV-1 27.4 µM | MOLT-4 33.4 µM | CAKI-1 20.5 µM | SK-OV-3 > 100 µM | NCI-H522 14.3 µM | TK-10 22.6 µM

CCN(CCO)C(=O)C1(c2ccccc2)CCCCC1
inactive: SK-MEL-5 > 10 µM | SW-620 > 10 µM | KM12 > 10 µM | SK-MEL-2 > 10 µM | EKVX > 10 µM | SF-268 > 10 µM | ACHN > 10 µM | RXF 393 > 10 µM | A549 > 10 µM | SN12C > 10 µM | LOX IMVI > 10 µM | SF-295 > 10 µM | OVCAR-4 > 10 µM | NCI/ADR-RES > 10 µM | IGROV-1 > 10 µM | MOLT-4 > 10 µM | CAKI-1 > 10 µM | SK-OV-3 > 10 µM | NCI-H522 > 10 µM | TK-10 > 10 µM
